In US20120211082A1, “PHOTOELECTRIC CONVERSION DEVICE AND SOLAR CELL USING THE SAME” (MITSUBISHI CHEMICAL CORPORATION, priority 2009, published 2012):

How the values were obtained:
Assay type in all cases: physicochemical
[1] = Solubility of fullerene compounds in toluene; conditions: mixed at 40° C., returned to 25° C.
Protocol: With regard to the solubility of various fullerene compounds, a powder of a fullerene derivative and toluene were mixed at 40° C. The amount of toluene used at this time was a minimum amount at which dissolution was confirmed at 40° C. Thereafter, temperature was returned to 25° C. and no precipitation was confirmed. The concentration of the toluene on this occasion was regarded as the solubility. In the case where precipitation was observed, toluene was further added until dissolution, and the concentration of the toluene at the time when dissolution was finally confirmed was regarded as the solubility.

[2] = Solubility of buffer material in methanol at room temperature
[3] = Solubility in THF noted during cyclic voltammetry; conditions: cyclic voltammetry conditions
Protocol: Thus, using a mixed solvent of o-dichlorobenzene and acetonitrile (4:1, volume ratio) instead of THF, the cyclic voltammetry was performed.

| Compound | Solubility (% by weight) [1] [% by weight] | Solubility (MeOH, room temperature)/% by weight [2] [% by weight] | Solubility in THF [3] |
| --- | --- | --- | --- |
| 1-(3-methoxycarbonyl)propyl-1-phenyl(6,6)-C60 [PCBM] | 1.5 | – | – |
| Cc1cc(-c2ccccc2)c2ccc3c(-c4ccccc4)cc(C)nc3c2n1 [BCP, 2,9-dimethyl-4,7-diphenyl-1,10-phenanthroline] | – | 0.1 | – |
| O=P(c1ccccc1)(c1ccccc1)c1ccc2ccccc2c1-c1c(P(=O)(c2ccccc2)c2ccccc2)ccc2ccccc12 [BINAPO] | – | 4 | – |
| c12c3c4c5c1c1c6c7c2c2c8c3c3c9c4c4c%10c5c5c1c1c6c6c%11c7c2c2c7c8c3c3c8c9c4c4c9c%10c5c5c1c1c6c6c%11c2c2c7c3c3c8c4c4c9c5c1c1c6c2c3c41 [C60, fullerene] | 0.3 | – | sparingly soluble |
| c1ccc(-c2cc(-c3ccc4ccccc4c3)nc3c2ccc2c(-c4ccccc4)cc(-c4ccc5ccccc5c4)nc23)cc1 [NBPhen] | – | <0.01 | – |
| O=P(c1ccccc1)(c1ccccc1)c1cccc(-c2cc(-c3ccccc3)cc(-c3cccc(P(=O)(c4ccccc4)c4ccccc4)c3)n2)c1 [PO(TPP)PO] | – | >8 | – |
| O=P(c1ccccc1)(c1ccccc1)c1ccc2c(c1)c1cc(P(=O)(c3ccccc3)c3ccccc3)ccc1n2-c1ccccc1 [POCzPO] | – | >8 | – |
| O=P(c1ccccc1)(c1ccccc1)c1c(F)c(F)c(-c2c(F)c(F)c(P(=O)(c3ccccc3)c3ccccc3)c(F)c2F)c(F)c1F [POFBPO] | – | 1 | – |
| O=P(c1ccccc1)(c1ccccc1)c1ccccc1 [POPh3] | – | >5.0 | – |
| O=P(c1ccccc1)(c1ccc2ccc3cccc4ccc1c2c34)c1ccc2ccc3cccc4ccc1c2c34 [POPy2] | – | <0.01 | – |
| O=P(c1ccccc1)(c1ccccc1)c1ccc2c(c1)C1(c3ccccc3-c3ccccc31)c1cc(P(=O)(c3ccccc3)c3ccccc3)ccc1-2 [POSFPO] | – | 0.5 | – |
| c1ccc(-n2c(-c3cc(-c4nc5ccccc5n4-c4ccccc4)cc(-c4nc5ccccc5n4-c4ccccc4)c3)nc3ccccc32)cc1 [TPBi] | – | <0.01 | – |
